Active and inactive are the calls of the source. The rule behind the calls is not given here.
Columns and labels:
SH-SY5Y [1] = test: Neuroprotection against rotenone/oligomycin-A-indced human SH-SY5Y cell death assessed as protective effect at 1 uM after 2 hrs by MTT assay; assay type: functional
Acetylcholinesterase [2] = molecular target: Acetylcholinesterase (Electrophorus electricus, UniProt O42275)
Description: Inhibition of Electrophorus electricus AChE by Ellman's method

Acetylcholinesterase [3] = molecular target: T1, Acetylcholinesterase (Bos taurus, UniProt P23795)
T1 sequence (P23795 whole entry): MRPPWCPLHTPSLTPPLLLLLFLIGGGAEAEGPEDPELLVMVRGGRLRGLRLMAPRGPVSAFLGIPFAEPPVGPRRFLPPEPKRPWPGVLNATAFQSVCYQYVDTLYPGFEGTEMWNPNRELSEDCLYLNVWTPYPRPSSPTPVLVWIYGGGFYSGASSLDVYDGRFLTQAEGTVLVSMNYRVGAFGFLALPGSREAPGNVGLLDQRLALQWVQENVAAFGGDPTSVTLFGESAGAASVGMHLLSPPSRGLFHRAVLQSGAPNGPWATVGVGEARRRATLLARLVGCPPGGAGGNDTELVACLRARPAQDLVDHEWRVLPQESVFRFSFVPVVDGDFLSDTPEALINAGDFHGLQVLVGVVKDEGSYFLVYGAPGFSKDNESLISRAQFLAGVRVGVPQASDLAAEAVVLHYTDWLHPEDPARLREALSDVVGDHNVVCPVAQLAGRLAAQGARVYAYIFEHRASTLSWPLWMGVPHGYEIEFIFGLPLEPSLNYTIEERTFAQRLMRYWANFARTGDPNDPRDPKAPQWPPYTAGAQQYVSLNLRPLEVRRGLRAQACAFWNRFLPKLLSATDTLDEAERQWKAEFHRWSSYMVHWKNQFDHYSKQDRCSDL
Description: Inhibition of bovine erythrocytes AChE by Ellman's method

Cholinesterase = Cholinesterase (Equus caballus, UniProt P81908)
Description: Inhibition of horse serum BuChE by Ellman's method

SH-SY5Y [4] = test: Neuroprotection against okadaic acid-induced human SH-SY5Y cell death assessed as reduction in cell death at 0.1 to 1 uM; assay type: functional, cell-based
SH-SY5Y [5] = test: Neuroprotection against okadaic acid-induced human SH-SY5Y cell death assessed as reduction in LDH release at 0.1 to 1 uM relative to control; assay type: functional; set-up: scale not given: the % may be the effect or the level left
SH-SY5Y [6] = test: Neuroprotection against okadaic acid-induced human SH-SY5Y cell death assessed as reduction in LDH release at 0.3 uM relative to control; assay type: functional; set-up: scale not given: the % may be the effect or the level left
[7] = molecular target: Acetylcholinesterase (Homo sapiens) (UniProt P22303); test: Antagonist activity at human nAChR in human SH-SY5Y cells assessed as inhibition of acetylcholine-induced cytosolic Ca2+ signal at 0.3 to 100 uM; assay type: functional, cell-based
[8] = molecular target: Acetylcholinesterase (Homo sapiens) (UniProt P22303); test: Antagonist activity at human nAChR in human SH-SY5Y cells assessed as inhibition of 70 mM K+ induced cytosolic Ca2+ signal at 0.3 to 100 uM; assay type: functional, cell-based

Sequence of Cholinesterase (P81908 whole entry): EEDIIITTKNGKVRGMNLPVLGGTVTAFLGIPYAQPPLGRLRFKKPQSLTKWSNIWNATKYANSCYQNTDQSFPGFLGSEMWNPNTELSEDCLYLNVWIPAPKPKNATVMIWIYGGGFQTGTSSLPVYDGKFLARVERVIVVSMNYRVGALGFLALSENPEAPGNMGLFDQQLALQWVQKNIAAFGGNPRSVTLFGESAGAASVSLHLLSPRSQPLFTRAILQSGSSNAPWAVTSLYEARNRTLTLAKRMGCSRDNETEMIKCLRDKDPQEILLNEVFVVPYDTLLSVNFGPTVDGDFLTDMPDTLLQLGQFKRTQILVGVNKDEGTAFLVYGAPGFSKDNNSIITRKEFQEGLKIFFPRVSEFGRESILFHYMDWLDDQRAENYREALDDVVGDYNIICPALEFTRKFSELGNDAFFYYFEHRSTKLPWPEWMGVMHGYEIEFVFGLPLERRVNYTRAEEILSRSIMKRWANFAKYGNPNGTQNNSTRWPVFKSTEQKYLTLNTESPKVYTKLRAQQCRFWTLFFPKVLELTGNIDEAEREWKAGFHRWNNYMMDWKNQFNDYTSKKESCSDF
Sequence of Acetylcholinesterase (Electrophorus electricus, UniProt O42275) (O42275 whole entry): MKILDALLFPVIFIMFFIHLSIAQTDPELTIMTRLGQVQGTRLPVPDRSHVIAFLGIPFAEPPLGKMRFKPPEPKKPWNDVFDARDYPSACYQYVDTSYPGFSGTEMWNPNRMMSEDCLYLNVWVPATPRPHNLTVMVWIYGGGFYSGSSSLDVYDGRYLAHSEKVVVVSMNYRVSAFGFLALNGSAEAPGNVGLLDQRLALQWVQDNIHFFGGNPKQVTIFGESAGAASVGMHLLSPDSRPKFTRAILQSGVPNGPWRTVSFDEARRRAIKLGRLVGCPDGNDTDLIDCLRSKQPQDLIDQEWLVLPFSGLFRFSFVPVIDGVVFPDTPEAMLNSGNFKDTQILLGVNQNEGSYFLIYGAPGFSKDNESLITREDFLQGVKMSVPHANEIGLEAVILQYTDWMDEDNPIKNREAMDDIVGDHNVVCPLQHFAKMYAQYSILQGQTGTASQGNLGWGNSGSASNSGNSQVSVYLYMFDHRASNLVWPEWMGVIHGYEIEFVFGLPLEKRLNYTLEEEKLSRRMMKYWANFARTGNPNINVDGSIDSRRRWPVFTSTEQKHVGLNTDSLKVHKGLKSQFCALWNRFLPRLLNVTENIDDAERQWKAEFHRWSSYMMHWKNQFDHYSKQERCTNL
Sequence of Acetylcholinesterase (Homo sapiens) (P22303 whole entry): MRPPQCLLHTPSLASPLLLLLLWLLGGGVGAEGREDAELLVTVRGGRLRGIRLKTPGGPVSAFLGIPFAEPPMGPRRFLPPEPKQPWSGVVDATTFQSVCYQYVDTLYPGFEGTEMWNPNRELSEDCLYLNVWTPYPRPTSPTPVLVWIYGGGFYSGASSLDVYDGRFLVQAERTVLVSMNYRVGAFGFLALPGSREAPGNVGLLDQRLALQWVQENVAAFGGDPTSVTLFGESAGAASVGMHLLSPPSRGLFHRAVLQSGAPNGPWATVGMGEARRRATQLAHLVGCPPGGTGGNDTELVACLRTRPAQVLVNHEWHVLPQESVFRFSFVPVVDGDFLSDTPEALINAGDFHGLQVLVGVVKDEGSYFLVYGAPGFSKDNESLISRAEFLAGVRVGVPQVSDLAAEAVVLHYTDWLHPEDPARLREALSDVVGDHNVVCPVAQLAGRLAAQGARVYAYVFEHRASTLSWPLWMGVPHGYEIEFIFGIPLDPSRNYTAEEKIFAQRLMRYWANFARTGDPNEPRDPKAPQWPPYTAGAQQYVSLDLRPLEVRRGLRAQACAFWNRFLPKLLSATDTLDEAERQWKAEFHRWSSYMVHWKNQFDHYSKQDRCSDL

SMILES	Activity (SH-SY5Y [1]) [%]	IC50 (Acetylcholinesterase [2]) [nM]	IC50 (Acetylcholinesterase [3]) [nM]	IC50 (Cholinesterase) [µM]	Activity (SH-SY5Y [4])	Activity (SH-SY5Y [5]) [%]	Activity (SH-SY5Y [6]) [%]	inhibition [7]	inhibition [8]
N#Cc1cc2c(N)c3c(nc2nc1Cl)CCN(Cc1ccccc1)C3	20	350	> 100000	> 100					
N#Cc1c(Cl)nc2nc3c(c(N)c2c1-c1ccccc1)CCCC3	8	> 30000	> 100000	> 30					
CN(C)c1nc2nc3c(c(N)c2cc1C#N)CCCC3	6	14	100	5.2					
CCOc1nc2nc3c(c(N)c2cc1C#N)CCCC3	29	50	1000	> 30					
CN(C)c1nc2nc3c(c(N)c2c(-c2ccccc2)c1C#N)CCCC3	3	90	4400	7.5					
COc1nc2nc3c(c(N)c2c(-c2ccccc2)c1C#N)CCCC3	12	80	5000	5.1					
N#Cc1cc2c(N)c3c(nc2nc1N1CCCCC1)CCCC3	19	25	1000	3.6					
COc1nc2nc3c(c(N)c2cc1C#N)CN(Cc1ccccc1)CC3	11	350	5000	> 100					
N#Cc1cc2c(N)c3c(nc2nc1Cl)CCCC3	4	5000	> 100000	> 30					
COc1nc2nc3c(c(N)c2cc1C#N)CCCC3	23	60	1600	9.6	Active	49	65	inactive	inactive
N#Cc1cc2c(N)c3c(nc2nc1N1CCCC1)CCCC3	29	43	160	5.6					
C#CCNc1nc2nc3c(c(N)c2cc1C#N)CCCC3	20	30	1530	2.6					
CC(=O)N[C@@H](CS)C(=O)O [ACETYLCYSTEINE]	33								

Source: ChEMBL document CHEMBL1641430, “Cholinergic and neuroprotective drugs for the treatment of Alzheimer and neuronal vascular diseases. II. Synthesis, biological assessment, and molecular modelling of new tacrine analogues from highly substituted 2-aminopyridine-3-carbonitriles” (Bioorg Med Chem, 2011)
